Each structure is given as a SMILES string. Read-outs that look alike come from different tables or passages of the source.

We go through 4 compounds from article PMC8970883, “Simultaneous Determination of Seven Phenolic Acids, Two Flavonoids, and Tussilagone in Rat Plasma after Administration of Farfarae Flos Extract by LC–MS/MS” (Evidence-based Complementary and Alternative Medicine : eCAM, 2022).

Series [1] can be described thus: Pharmacokinetic study in rats after intragastric administration of Farfarae Flos extract (plasma, LC-MS/MS). Type of series: in vivo. To be noted: for Cmax / Tmax / half-life / MRT last / MRT inf: male; for Cmax: rat, plasma, po; for MRT last: read-out: MRT(0–24h); for MRT inf: read-out: MRT(0–∞). An excerpt: A high-performance liquid chromatography instrument was used to separate three types of compounds (Agilent 1200 series, USA). The HPLC instrument is composed of four parts; a G1322A degasser, G1312A Bin Pump, G1367B auto-sampler, and G1316A thermostatic column compartment. Three types of compounds and three internal standards (ISs) were separated on an Eclipse Plus C18 (4.6 × 100 mm, 1.8 μm). The mobile phase was composed of formic acid aqueous solution (A) and formic acid methanol solution (B). The concentration of formic acid in both A and B solution was 0.1% (v/v). The gradient elution was as follows. The proportion of 10% B changes to 40% from 0 min to 3mins. 40% B changes to 90% from 16 to 18 min. B is maintained at 100% from 19 to 28 min. The flow rate, sample injected volume, and column temperature was 0.35 mL·min^−1, 10 μL, and 35°C, respectively.
Quantitative analysis of all samples was performed on Sciex API 3200 with an electrospray ionization (ESI) source. Analyst 1.6.2 workstation for instrument operation, data management, and data analysis were employed to analyze and process data (AB, Sciex). Ten analyzed compounds and three ISs were optimized during multiple reactions monitoring (MRM). […] MRM parameters of CCLA were set at 353.1-191.0. […] MRM parameters of IAB were set as 515.3-353.2 and MRM parameters of IAA were set at 515.2-353.0. MRM parameters of IAC and tussilagone were set as 515.3-352.9, 391.4-217.4, respectively.
Twenty male rats (4 months old, weight 240 ± 20 g) were obtained commercially from Vital River Laboratory Animal Company (Beijing, China). Before the pharmacokinetic experiments, they were free to eat food and drink water for one week for adapting to the environment when the dark light cycle was 12 hours, while the temperature was maintained at 25 ± 5°C. The animal experiments were guided and strictly approved by Tianjin Hospital animal ethics committee. They were fasted for 12 hours and could only drink freely water before intragastric administration of Farfarae Flos extract. Ten rats in each group were employed for eliminating data variation caused by different animal individuals. All rats in groups 1 and group 2 were orally administrated one time at two dosages of Farfarae Flos extract (carboxymethyl cellulose sodium salt (0.5%) was used to suspend the extract to prepare the administration solution 3.90 g·kg^−1 and 7.80 g·kg^−1), respectively. Rats were anesthetized with ether. The heparinized 1.5 mL polythene tube was used to collect bank plasma samples before administering dose of the extract. About 250 μL plasma samples were collected at each collecting points of 5 min, 10 min, 0.25 h, 0.50 h, 0.75 h, 1 h, 2 h, 4 h, 8 h, 12 h, 24 h, and 36 h via fossa orbitalis after dosing. All plasma samples from collecting points need to be centrifuged at 4,000 rpm for ten minutes. The supernatant fluid of centrifuged plasma samples was obtained and immediately stored at −20°C in a refrigerator until they were analyzed.
The maximum concentration (Cmax) and the time to reach the maximum concentration (Tmax) of ten target compounds were directly calculated by the real concentration-time data in the plasma. The data were expressed as mean ± SD.
Ten microliters of ISs solution (contained puerarin, ferulic acid, and artemisinin) and the plasma sample (100 μL) were added into a clean tube, and then acetonitrile (400 μL) was added to precipitate protein. After centrifugation at 14000 rpm for 10 minutes, a mild nitrogen flow was used to evaporate the liquid of the supernatant to dryness. Then, the residue was dissolved in methanol (100 μL). The solution was vortexed for 3 min, mixed for 3 minutes with ultrasound, and centrifuged for 10 min. Finally, the solution (10 μL) was used to detect concentration of ten target compounds in rat plasma.

Series [2] is described as follows: Stability of QC samples in rat plasma (24 h, freeze-thaw, 4 weeks). Type of series: in vitro ADME. To be noted: six replicates; for Freeze-thaw stability, percent remaining: freeze-thaw cycles −20°C to 20°C; for Long stability Remain (%): stored at −80°C for 4 weeks; for 24 h stability Remain (%): 24 hours at 20°C. Here is the method: Stock solution of 10 analytical compounds (1.00 mg·mL^−1) and three internal standards (ISs) was dissolved in methanol and placed in the refrigerator before testing. Methanol was used to prepare ferulic acid (IS1), puerarin (IS2), and artemisinin (IS3) solutions to reach a concentration of 1 μg mL^−1, respectively. A specific volume of each analyte stock solution is mixed together to prepare the standard working solution containing 10 analytes with a concentration of 10 times at LLOQ and three levels (high, medium, and low). Quality control (QC) samples for methodological validation were prepared to obtain the final concentration by adding standard working solution (10 μL) into blank plasma samples (100 μL).
Four concentration levels of ICB and ICA were 4, 12, 400, and 12000 ng mL^−1, respectively. Four concentration levels of caffeic acid were 10, 30, 1000, and 30000 ng·mL^−1, respectively.
In the stability test, 24-hour stability (The samples were placed for 24 hours at 20°C and then measured), freeze-thaw cycles (The sample was injected after the temperature changing from −20°C to 20°C), and 4 weeks stability (The sample was determined after stored at −80°C for 4 weeks) of representative QC samples were all tested. All of them were assayed with six replicates.

The conditions of series [3]: previous pharmacokinetic study on chlorogenic acid ref 15; cited from earlier work.
Where [4] appears, read: 3.9 g/kg, oral Farfarae Flos extract 3.9 g·kg^−1, mean ± SD.
Setting [5] is: rat plasma, oral Farfarae Flos extract 3.9 g·kg^−1, mean ± SD.
Where [6] appears, read: rat plasma, oral Farfarae Flos extract 7.8 g·kg^−1, mean ± SD.
The mark [7] stands for this setting: high concentration level (3000-30000 ng·mL^−1).
Where [8] appears, read: low concentration level (3-30 ng·mL^−1).
Setting [9] is: medium concentration level (100-1000 ng·mL^−1).
Where [10] appears, read: 7.8 g/kg, oral Farfarae Flos extract 7.8 g·kg^−1, mean ± SD.

One may read the Cmax as the highest concentration seen after dosing. Broadly, the Tmax is the time at which the peak concentration occurs. The term half-life denotes how long it takes for the measured level to halve. Read a high half-life as slow loss. The MRT is the average time that molecules of a dose stay in the body. In turn, `O=C(/C=C/c1ccc(O)c(O)c1)O[C@@H]1C[C@](O)(C(=O)O)C[C@@H](O)[C@H]1O` [CLA, chlorogenic acid] yielded a Cmax in series [1] (setting [4]) of 538 ± 489 ng/mL. Further, in series [1] (setting [5]), the Tmax was 0.64 ± 0.244 h, the half-life is 2.16 ± 1.46 h, the MRT last amounted to 4.4 ± 1.71 h and the MRT inf was determined as 5.41 ± 2.04 h. In series [1] (setting [5]), the “AUC(0–24h)” value stood at 1425 ± 1046 ng/mL ∗ h and the “AUC(0–∞)” value turned out to be 1467 ± 1044 ng/mL ∗ h. Moreover, in series [1] (setting [6]), the time of peak concentration (Tmax) came to 0.38 ± 0.14 h, the half-life is 1.28 ± 0.56 h, the MRT last was found to be 4.63 ± 1.36 h and the MRT inf stood at 5.32 ± 1.55 h. In series [1] (setting [6]), the “AUC(0–24h)” value was 3611 ± 1023 ng/mL ∗ h and the “AUC(0–∞)” value came to 3692 ± 1052 ng/mL ∗ h. In series [2] (setting [7]), the “Freeze-thaw stability, percent remaining” value worked out at 115% and the “Long stability Remain (%)” value was found to be 112%. Moreover, in series [2] (setting [8]), the “Long stability Remain (%)” value worked out at 114%. In addition, the “Freeze-thaw stability, percent remaining” value in series [2] (setting [9]) was 88.7%. Further, in series [3], the MRT is on record as 5.08 ± 0.89 h and the Tmax is given as 0.70 ± 0.19 h.

With `O=C(/C=C/c1ccc(O)c(O)c1)O[C@@H]1C[C@@](O)(C(=O)O)C[C@@H](O)[C@@H]1O` [NCLA, neochlorogenic acid], the Cmax in series [1] (setting [4]) was 74 ± 52 ng/mL. In series [1] (setting [10]), this compound registered a Cmax of 486 ± 273 ng/mL. In addition, in series [1] (setting [5]), the Tmax is 0.69 ± 0.19 h, the half-life is 1.61 ± 1.1 h, the MRT last is 4.35 ± 2.74 h and the MRT inf turned out to be 7.9 ± 7.34 h. Moreover, in series [1] (setting [5]), the “AUC(0–24h)” value came to 210.2 ± 126.4 ng/mL ∗ h and the “AUC(0–∞)” value is on record as 239.3 ± 125.3 ng/mL ∗ h. In series [1] (setting [6]), the time of peak concentration (Tmax) was determined as 0.36 ± 0.13 h, the half-life was 1.49 ± 0.54 h, the MRT last is 6.33 ± 2.33 h and the MRT inf is 8.61 ± 2.66 h. Also, in series [1] (setting [6]), the “AUC(0–24h)” value is listed as 965.7 ± 295.9 ng/mL ∗ h and the “AUC(0–∞)” value is 1028 ± 3007 ng/mL ∗ h. In series [2] (setting [7]), the “Freeze-thaw stability, percent remaining” value was determined as 87.0% and the “Long stability Remain (%)” value came to 114%. Moreover, the “Freeze-thaw stability, percent remaining” value in series [2] (setting [8]) turned out to be 111%. For the same compound, in series [2] (setting [9]), the “Freeze-thaw stability, percent remaining” value is 82.9%.

For `C[C@@H]1O[C@@H](OC[C@H]2O[C@@H](Oc3c(-c4ccc(O)c(O)c4)oc4cc(O)cc(O)c4c3=O)[C@H](O)[C@@H](O)[C@@H]2O)[C@H](O)[C@H](O)[C@H]1O` [Rutin, rutin], the Cmax in series [1] (setting [4]) is 17.9 ± 17.6 ng/mL. Moreover, the Cmax in series [1] (setting [10]) stood at 76.7 ± 55.5 ng/mL. In addition, in series [1] (setting [5]), the half-life was 0.61 ± 0.46 h, the MRT last is 1.95 ± 1.06 h, the MRT inf was found to be 3.06 ± 1.3 h and the “AUC(0–24h)” value was 39.49 ± 59.42 ng/mL ∗ h. In series [1] (setting [5]), the “AUC(0–∞)” value is listed as 42.77 ± 60.06 ng/mL ∗ h and the T max was found to be 0.39 ± 0.16 h. In series [1] (setting [6]), the Tmax came out at 0.32 ± 0.12 h, the MRT last worked out at 2.79 ± 0.24 h, the MRT inf was 6.02 ± 4.7 h and the “AUC(0–24h)” value was 104.04 ± 53.04 ng/mL ∗ h. For the same compound, the “t 1/2” value in series [1] (setting [6]) turned out to be 0.82 ± 0.51 h. For the same compound, in series [2] (setting [7]), the “Freeze-thaw stability, percent remaining” value is 116% and the “Long stability Remain (%)” value is 89.6%. The “Long stability Remain (%)” value in series [2] (setting [8]) is listed as 97.0%.

In turn, `C=C1[C@H](OC(=O)/C=C(\C)CC)C[C@@H](C(C)C)[C@@H]2[C@@H]([C@@H](C)OC(C)=O)C(=O)C[C@@H]12` [Tussilagone, tussilagone] came in with a peak concentration (Cmax) in series [1] (setting [4]) of 0.83 ± 0.5 ng/mL. The compound also came in with a Cmax in series [1] (setting [10]) of 18.1 ± 13 ng/mL. In series [1] (setting [5]), the Tmax came to 0.44 ± 0.38 h, the half-life was 0.28 ± 0.2 h, the MRT last is 0.87 ± 0.134 h and the MRT inf is 3.12 ± 2.62 h. In series [1] (setting [5]), the “AUC(0–24h)” value came out at 1.06 ± 0.564 ng/mL ∗ h and the “AUC(0–∞)” value was 2.19 ± 1.98 ng/mL ∗ h. For the same compound, in series [1] (setting [6]), the Tmax was 0.4 ± 0.33 h, the half-life is 0.82 ± 0.72 h, the MRT last worked out at 2.42 ± 2.1 h and the MRT inf amounted to 6.98 ± 9.13 h. In addition, in series [1] (setting [6]), the “AUC(0–24h)” value is reported as 35.48 ± 42.302 ng/mL ∗ h and the “AUC(0–∞)” value was 47.12 ± 49.445 ng/mL ∗ h. In addition, the Terminal elimination half-life result in series [1] (rat plasma, compared among the three types of compounds, Farfarae Flos extract 3.90 and 7.80 g·kg^−1) is recorded as “shortest”. For the same compound, in series [2] (setting [7]), the “24 h stability Remain (%)” value came to 95.0%; the “Freeze-thaw stability, percent remaining” value came to 91.8%; the “Long stability Remain (%)” value is 109%. For the same compound, in series [2] (setting [8]), the “24 h stability Remain (%)” value came to 100%; the “Freeze-thaw stability, percent remaining” value came to 83.9%; the “Long stability Remain (%)” value amounted to 101%. Besides, in series [2] (setting [9]), the “24 h stability Remain (%)” value is 92.1%; the “Freeze-thaw stability, percent remaining” value was 115%; the “Long stability Remain (%)” value was found to be 107%.
